{"source": "patent US20110318375A1", "about": "“Immunomodulatory Therapeutic Agents” (priority 2009, published 2011)", "key": {"Cytokine 12 Panel [1]": {"test_system": "Cytokine 12 Panel", "assay": "Cytokine 12 panel, oral daily dosing with 3 mg Fibrinopeptide A (Table 5)", "assay_type": "in vivo, human", "set-up": "IL-10 / TNF-α / IL-2 / IL-12: unit not given here", "settings": "for IFN-γ / IL-4 / IL-5 / IL-6 / IL-8 / IL-13: nl: 0-5; for IL-12: nl: 0-6; for IL-2: nl: 0-12; for IL-10: nl: 0-18; for TNF-α: nl: 0-22; for IL-1β: nl: 0-36; for IL-2R: nl: 0-1033", "from_the_text": "[table] […] One of these patients was the same patient previously utilized, while the other was relatively neve to any previous Fibrinopeptide A treatment. The patient had taken two doses orally approximately seven weeks prior to this treatment, no lab work had been obtained with this prior dosing. […] Note the response in the IL-10 and IL-1b in this patient similar to the other patients. However, this patient return back toward baseline values much more rapidly than the other patients, accentuating the variability expected in this type of response from one patient to another. This also validates the efficacy of oral administration to achieve an anti-inflammatory/immunomodulatory benefit."}, "Cytokine 12 Panel [2]": {"test_system": "Cytokine 12 Panel", "assay": "Cytokine 12 panels following oral administration of FPA (Table 6)", "assay_type": "in vivo, human", "set-up": "IL-12 / IL-10 / TNF-α / IL-2: unit not given here", "settings": "for IFN-γ / IL-4 / IL-5 / IL-6 / IL-8 / IL-13: nl: 0-5; for IL-12: nl: 0-6; for IL-2: nl: 0-12; for IL-10: nl: 0-18; for TNF-α: nl: 0-22; for IL-1β: nl: 0-36; for IL-2R: nl: 0-1033", "from_the_text": "One of these patients was the same patient previously utilized, while the other was relatively neve to any previous Fibrinopeptide A treatment. The patient had taken two doses orally approximately seven weeks prior to this treatment, no lab work had been obtained with this prior dosing. […] This again elucidates the lack of effect of Fibrinopeptide A when given IV and the importance of utilizing a lymphatic route when treating with Fibrinopeptide A, and probably the others as well. [table] The data in table 6 further illustrates the up regulation of all aspects of the immune system in response to this persistent exposure to synthetic activated fibrinopeptide A through a lymphatic administration."}, "[3]": {"settings": "2 weeks back on FPA (different carrier)"}}, "data": [{"sequence": "ADSGEGDFLAEGGGV (listed as Homo sapiens) [Fibrinopeptide A]", "values": [{"measurement": "IFN-γ", "setting": "Cytokine 12 Panel [1]; Off 1 Week", "result": 5}, {"measurement": "IL-4", "setting": "Cytokine 12 Panel [1]; Off 1 Week", "result": "<5"}, {"measurement": "IL-5", "setting": "Cytokine 12 Panel [1]; Off 1 Week", "result": 5}, {"measurement": "IL-6", "setting": "Cytokine 12 Panel [1]; Off 1 Week", "result": 5}, {"measurement": "IL-8", "setting": "Cytokine 12 Panel [1]; Off 1 Week", "result": 8}, {"measurement": "IL-13", "setting": "Cytokine 12 Panel [1]; Off 1 Week", "result": 8}, {"measurement": "IL-12", "setting": "Cytokine 12 Panel [1]; Off 1 Week", "result": 6}, {"measurement": "IL-2", "setting": "Cytokine 12 Panel [1]; Off 1 Week", "result": 6}, {"measurement": "IL-10", "setting": "Cytokine 12 Panel [1]; Off 1 Week", "result": 28}, {"measurement": "TNF-α", "setting": "Cytokine 12 Panel [1]; Off 1 Week", "result": "<5"}, {"measurement": "IL-1β", "setting": "Cytokine 12 Panel [1]; Off 1 Week", "result": "<5"}, {"measurement": "IL-2R", "setting": "Cytokine 12 Panel [1]; Off 1 Week", "result": 147}, {"measurement": "elevation of Interleukin-13", "setting": "Cytokine 12 Panel [1]; giving just Fibrinopeptide A", "result": "does not result in an elevation"}, {"measurement": "IFN-γ", "setting": "Cytokine 12 Panel [1]; oral daily 3 mg, 1 Week", "result": "<5"}, {"measurement": "IL-4", "setting": "Cytokine 12 Panel [1]; oral daily 3 mg, 1 Week", "result": "<5"}, {"measurement": "IL-5", "setting": "Cytokine 12 Panel [1]; oral daily 3 mg, 1 Week", "result": "<5"}, {"measurement": "IL-6", "setting": "Cytokine 12 Panel [1]; oral daily 3 mg, 1 Week", "result": "<5"}, {"measurement": "IL-8", "setting": "Cytokine 12 Panel [1]; oral daily 3 mg, 1 Week", "result": "<5"}, {"measurement": "IL-13", "setting": "Cytokine 12 Panel [1]; oral daily 3 mg, 1 Week", "result": "<5"}, {"measurement": "IL-12", "setting": "Cytokine 12 Panel [1]; oral daily 3 mg, 1 Week", "result": "<5"}, {"measurement": "IL-2", "setting": "Cytokine 12 Panel [1]; oral daily 3 mg, 1 Week", "result": "<5"}, {"measurement": "IL-10", "setting": "Cytokine 12 Panel [1]; oral daily 3 mg, 1 Week", "result": 137}, {"measurement": "TNF-α", "setting": "Cytokine 12 Panel [1]; oral daily 3 mg, 1 Week", "result": "<5"}, {"measurement": "IL-1β", "setting": "Cytokine 12 Panel [1]; oral daily 3 mg, 1 Week", "result": 30}, {"measurement": "IL-2R", "setting": "Cytokine 12 Panel [1]; oral daily 3 mg, 1 Week", "result": 423}, {"measurement": "IFN-γ", "setting": "Cytokine 12 Panel [2]; 2 Weeks off FPA", "result": "<5"}, {"measurement": "IL-4", "setting": "Cytokine 12 Panel [2]; 2 Weeks off FPA", "result": "<5"}, {"measurement": "IL-5", "setting": "Cytokine 12 Panel [2]; 2 Weeks off FPA", "result": 6}, {"measurement": "IL-6", "setting": "Cytokine 12 Panel [2]; 2 Weeks off FPA", "result": 66}, {"measurement": "IL-8", "setting": "Cytokine 12 Panel [2]; 2 Weeks off FPA", "result": 8}, {"measurement": "IL-13", "setting": "Cytokine 12 Panel [2]; 2 Weeks off FPA", "result": 8}, {"measurement": "IL-12", "setting": "Cytokine 12 Panel [2]; 2 Weeks off FPA", "result": 6}, {"measurement": "IL-2", "setting": "Cytokine 12 Panel [2]; 2 Weeks off FPA", "result": 7}, {"measurement": "IL-10", "setting": "Cytokine 12 Panel [2]; 2 Weeks off FPA", "result": 230}, {"measurement": "TNF-α", "setting": "Cytokine 12 Panel [2]; 2 Weeks off FPA", "result": "<5"}, {"measurement": "IL-1β", "setting": "Cytokine 12 Panel [2]; 2 Weeks off FPA", "result": 37}, {"measurement": "IL-2R", "setting": "Cytokine 12 Panel [2]; 2 Weeks off FPA", "result": 255}, {"measurement": "IFN-γ", "setting": "Cytokine 12 Panel [2]; [3]", "result": 5}, {"measurement": "IL-4", "setting": "Cytokine 12 Panel [2]; [3]", "result": "<5"}, {"measurement": "IL-5", "setting": "Cytokine 12 Panel [2]; [3]", "result": 6}, {"measurement": "IL-6", "setting": "Cytokine 12 Panel [2]; [3]", "result": 63}, {"measurement": "IL-8", "setting": "Cytokine 12 Panel [2]; [3]", "result": 8}, {"measurement": "IL-13", "setting": "Cytokine 12 Panel [2]; [3]", "result": 9}, {"measurement": "IL-12", "setting": "Cytokine 12 Panel [2]; [3]", "result": 6}, {"measurement": "IL-2", "setting": "Cytokine 12 Panel [2]; [3]", "result": 7}, {"measurement": "IL-10", "setting": "Cytokine 12 Panel [2]; [3]", "result": 204}, {"measurement": "TNF-α", "setting": "Cytokine 12 Panel [2]; [3]", "result": "<5"}, {"measurement": "IL-1β", "setting": "Cytokine 12 Panel [2]; [3]", "result": 48}, {"measurement": "IL-2R", "setting": "Cytokine 12 Panel [2]; [3]", "result": 268}, {"measurement": "IFN-γ", "setting": "Cytokine 12 Panel [2]; oral, 1 Week", "result": "<5"}, {"measurement": "IL-4", "setting": "Cytokine 12 Panel [2]; oral, 1 Week", "result": "<5"}, {"measurement": "IL-5", "setting": "Cytokine 12 Panel [2]; oral, 1 Week", "result": "<5"}, {"measurement": "IL-6", "setting": "Cytokine 12 Panel [2]; oral, 1 Week", "result": "<5"}, {"measurement": "IL-8", "setting": "Cytokine 12 Panel [2]; oral, 1 Week", "result": "<5"}, {"measurement": "IL-13", "setting": "Cytokine 12 Panel [2]; oral, 1 Week", "result": "<5"}, {"measurement": "IL-12", "setting": "Cytokine 12 Panel [2]; oral, 1 Week", "result": "<5"}, {"measurement": "IL-2", "setting": "Cytokine 12 Panel [2]; oral, 1 Week", "result": "<5"}, {"measurement": "IL-10", "setting": "Cytokine 12 Panel [2]; oral, 1 Week", "result": 141}, {"measurement": "TNF-α", "setting": "Cytokine 12 Panel [2]; oral, 1 Week", "result": "<5"}, {"measurement": "IL-1β", "setting": "Cytokine 12 Panel [2]; oral, 1 Week", "result": 30}, {"measurement": "IL-2R", "setting": "Cytokine 12 Panel [2]; oral, 1 Week", "result": 504}, {"measurement": "IFN-γ", "setting": "Cytokine 12 Panel [2]; oral, 2 weeks", "result": 5}, {"measurement": "IL-4", "setting": "Cytokine 12 Panel [2]; oral, 2 weeks", "result": "<5"}, {"measurement": "IL-5", "setting": "Cytokine 12 Panel [2]; oral, 2 weeks", "result": 5}, {"measurement": "IL-6", "setting": "Cytokine 12 Panel [2]; oral, 2 weeks", "result": 77}, {"measurement": "IL-8", "setting": "Cytokine 12 Panel [2]; oral, 2 weeks", "result": 8}, {"measurement": "IL-13", "setting": "Cytokine 12 Panel [2]; oral, 2 weeks", "result": 6}, {"measurement": "IL-12", "setting": "Cytokine 12 Panel [2]; oral, 2 weeks", "result": 6}, {"measurement": "IL-2", "setting": "Cytokine 12 Panel [2]; oral, 2 weeks", "result": 7}, {"measurement": "IL-10", "setting": "Cytokine 12 Panel [2]; oral, 2 weeks", "result": 183}, {"measurement": "TNF-α", "setting": "Cytokine 12 Panel [2]; oral, 2 weeks", "result": "<5"}, {"measurement": "IL-1β", "setting": "Cytokine 12 Panel [2]; oral, 2 weeks", "result": 83}, {"measurement": "IL-2R", "setting": "Cytokine 12 Panel [2]; oral, 2 weeks", "result": 254}]}]}
